Read-outs that look alike come from different tables or passages of the source.

Consider one compound from publication PMC7459852, “Identification of 6-(piperazin-1-yl)-1,3,5-triazine as a chemical scaffold with broad anti-schistosomal activities” (Wellcome Open Research, 2020).

For data set [1], the system named is S. mansoni adult worms. Kind of data set: Scanning electron microscopy of compound damage on adult worms. The format is cell-based, Schistosoma mansoni. Particulars: 12.50 µM (sub-lethal), 72 h. How it is done:
Following 72 h of drug treatment, the cultured S. mansoni adult worms were collected, separated by sex and relaxed with tricaine anaesthetic solution (0.25% w/v of ethyl 3-aminobenzoate methane sulfonate - Tricaine, E10521, Sigma Aldrich - in DMEM). The samples were incubated by gently rocking for 15 min or until parasites relaxed and separated. The parasites were then killed by incubation in a solution of […] magnesium chloride (MgCl 2) for 1 min. Afterwards, adult schistosome worms were briefly washed with pre-warmed 1X PBS and then fixed using appropriate solutions for analysis by scanning electron microscopy (SEM) as previously described in literature, [61], [62].
Post fixation, adult schistosomes were stored at 4°C until washing with 0.1 M sodium cacodylate was performed (2 x 30 min each). The worms were then stained with 1% v/v osmium tetroxide water solution (stored at -20°C and pre-warmed at room temperature prior to use) for 2 h and then washed with 0.1 M sodium cacodylate for 30 min. Following staining, worms were dehydrated with an aqueous alcohol series (30, 50, 70, 95 and 100% ethanol in ultra-pure water) by agitating gently on a rocker for 30 min per solution. At the final step, the samples were left in 100% ethanol overnight before being dried with hexamethyldisilazane critical drying point agent (AGR1228, Agar Scientific, Stansted, UK) for at least 3 h. […]

The test system of data set [2] is S. mansoni adult worms. Kind of data set: Adult worm screens (WormassayGP2 motility, egg count). It counts as cell-based. Conditions: Schistosoma mansoni, two dose response titrations (100 – 3.13 µM).
The nature of data set [3]: MTT cytotoxicity assay on HepG2 cells. The format is cell-based, Human. Particulars: human, HepG2 cells, MTT, 24 h; three dose response titrations (200 - 1 µM). As to the method:
Compound cytotoxicity on Human Hepatocyte Carcinoma (HepG2) cells (85011430, Sigma Aldrich) was elucidated by the MTT (3-(4,5-dimethylthiazol-2-yl)-2,5-diphenyltetrazolium bromide) tetrazolium reduction assay as previously described, [28], [50]. Briefly, HepG2 cells were seeded at a density of 20,000 per well in 96-well black, clear bottom falcon plate in modified BME medium (50 μl; containing 1% antibiotic/mycotic (Sigma-Aldrich, Gillingham, UK), 1% 200 mM L-glutammine (Gibco, Paisley, UK), 1% MEM non-essential amino acid solution (Gibco, Paisley, UK), and 10% fetal bovine serum (Gibco, Paisley, UK)). HepG2 plates seeded for cytotoxicity screens were treated with compounds 24 h post-seeding. Each compound was tested at 200, 100, 75, 50, 20, 10 and 1 µM; each concentration was assayed in triplicate. Blank wells (no cells), as well as positive (1% v/v Triton X-100, X100, Sigma-Aldrich) and negative (1.25% v/v DMSO or media only) controls, were included in each plate. After addition of compounds, each plate was then incubated for a further 20 h before application of MTT reagent for assessment of compound cytotoxicity (4 h incubation with MTT for a total 24 h cell-drug incubation). The absorbance reading at 570 nm was measured with a POLARstar Omega (BMG Labtech, UK) microtiter plate reader. Dose response curves were generated in GraphPad Prism 7.02 based on the corrected average absorbance of the three replicates for each concentration point.
(In general: Tetrazolium assays rely on reduction of a dye to a coloured formazan, in cell work by metabolically active cells.)

The test system of data set [4] is S. mansoni adult worms. Kind of data set: Adult worm screens (WormassayGP2 motility, egg count). Particulars: 72 h. The format is cell-based, Schistosoma mansoni. As to the method:
For compound screening, adult worms (three worm pairs/well for compound 7 and the hit compounds of set two; one worm pair/well for the hit compounds of set three) were transferred into wells of a 48-well tissue culture plate containing 1 ml of adult worm media. Adult worms were treated with compounds previously identified as hits at 10 µM on 72 h cultured schistosomula. Worms were dosed with an appropriate volume of 10 mM stock solution of each compound (in DMSO) to have a concentration range of 50 – 6.25 µM (up to 0.5% DMSO, primary screen of compound 7). Secondary screens were performed on the structural analogues of compound 7 (only the schistosomula hits at 10 µM) at a single concentration (12.5 µM) and compared to the same concentration of the parental compound (included in the screen as reference). DMSO (0.5%) and praziquantel (10 µM in 0.5% DMSO) were also included as negative and positive control treatments (both primary and secondary screens). Treated adult worms were incubated for 72 h in a humidified environment at 5% CO 2 at 37°C. Parasite motility after drug treatment was assessed by a digital image processing-based system (WormassayGP2, see Software availability) modified after Wormassay, [56], [57]. Egg production was assessed according to the methodology described by Edwards et al..

For data set [5], the system named is S. mansoni schistosomula. Kind of data set: Schistosomula screens (Roboworm, phenotype and motility). The format is cell-based, Schistosoma mansoni. Conditions: 72 h. How it is done:
Anthelmintic activity on the schistosomula stage of S. mansoni was evaluated using Roboworm, an integrated high-throughput, high content image analysis platform originally developed by Paveley et al. and subsequently used by our research group as previously described, [28], [50], [51]. Alternatively, the computer application Worminator can be used to assess motion of microscopic parasites such as the schistosomula stage of S. mansoni. Compounds (as single concentration or two-fold titrations) were prepared for screening in a 384-well plate (PerkinElmer, MA, USA), where solutions (1.6 mM, 0.5 μl) were wet stamped using the Biomek NX ^P liquid handling platform into Basch medium (20 μl). Negative (0.625% DMSO) and positive (Auranofin - AUR - at 10 µM final concentration in 0.625% DMSO) control wells were similarly prepared. Mechanically transformed schistosomula (about 120 parasites in 60 μl of Basch medium) were distributed into each treated well using a WellMate (Thermo Scientific, Loughborough, UK). Schistosomula/compound co-cultures were then incubated at 37°C for 72 h in a humidified atmosphere containing 5% CO 2. At 72 h, parasite/compound co-cultures were resuspended and tissue culture plates were imaged under the same conditions (37°C for 72 h in a humidified atmosphere containing 5% CO 2) using an ImageXpressXL high content imager (Molecular Devices, UK) with subsequent images processed for phenotype and motility as previously reported. Plate analysis returned a phenotype and motility score for each well and any scores below -0.15 and -0.35 (defined threshold anti-schistosomula values for phenotype and motility scores, respectively) defined a condition displaying anti-schistosomula activity. Compound screens were assessed based on the Z´ values (derived from the means and standard deviations of positive and negative controls) and those equal to or above 0.3 for both phenotype and motility were considered successful.
Phenotype and motility scores of each titration were used to generate dose response curves in GraphPad Prism 7.02 based on the corrected average score of the three replicates for each data point.

By EC50 is commonly meant the midpoint of the concentration-response curve. As usually defined, the CC50 is the concentration that lowers cell viability or growth by half. A low value points to harm at low concentration. On to `c1ccc(Nc2nc(N3CCCC3)nc(N3CCNCC3)n2)cc1` [Compound 7], for which the “morphological changes of adult worms by SEM” value in data set [1] is “partial loss of tubercles and spines as well as tegument erosion”. For the same compound, the EC50 in data set [2] was determined as 11 µM; in data set [5] (Schistosoma mansoni, average of phenotype and motility metrics, read-out: Schistosomula EC50 Average) it was 5.54 µM; in data set [5] (Schistosoma mansoni, dose response titrations (10 - 0.625 µM), read-out: Schistosomula EC50 Motility), 5.03 µM; in data set [5] (Schistosoma mansoni, dose response titrations (10 - 0.625 µM), read-out: Schistosomula EC50 Phenotype) it was 5.65 µM; in data set [5] (average of phenotype and motility metrics, read-out: Schistosomula EC50 Average), 5.34 µM. Further, in data set [3], it took 13.7 µM to reach half-maximal cytotoxicity (CC50 at 24 h). For the same compound, the “effect on adult worms (motility)” value is “worm recovery began at 12.50 µM and remained at 6.25 µM” in data set [4] (12.50 and 6.25 µM); “lethal effect” in data set [4] (50 and 25 µM). Moreover, the “egg production (worm fecundity)” value in data set [4] (titration 50 - 6.25 µM, effect up to and including 12.50 µM) is listed as “particularly effective in inhibiting worm fecundity”. In addition, the “anti-schistosomula activity (hit on phenotype and motility)” value was “remaining active” in data set [5] (10 µM) and “showed anti-schistosomal activity” in data set [5] (50 µM). Moreover, the schistosomula phenotype induced entry in data set [5] (both 50 and 10 µM) was “swollen with some individuals additionally displaying posterior end compression”.
